Among the data in patent US20080287479A1, “INHIBITORS OF SERINE PALMITOYLTRANSFERASE” (Pfizer Inc, priority 2006, published 2008) are IC50 values, retold here.

Broadly, the IC50 is the concentration that gives 50% inhibition.

Structures can show the parent of a compound that is named as a salt.

The first assay concerns the target T1, Serine Palmitoyl Transferase (SPT); microsomes from HEK 293 cells stably transfected with human LCB2 subunit of SPT (Homo sapiens, UniProt O15270).
T1 construct: expressed in transfected cells; host or cells: HEK 293 cells stably transfected with LCB2; microsomal fraction
T1 sequence (O15270 1-562): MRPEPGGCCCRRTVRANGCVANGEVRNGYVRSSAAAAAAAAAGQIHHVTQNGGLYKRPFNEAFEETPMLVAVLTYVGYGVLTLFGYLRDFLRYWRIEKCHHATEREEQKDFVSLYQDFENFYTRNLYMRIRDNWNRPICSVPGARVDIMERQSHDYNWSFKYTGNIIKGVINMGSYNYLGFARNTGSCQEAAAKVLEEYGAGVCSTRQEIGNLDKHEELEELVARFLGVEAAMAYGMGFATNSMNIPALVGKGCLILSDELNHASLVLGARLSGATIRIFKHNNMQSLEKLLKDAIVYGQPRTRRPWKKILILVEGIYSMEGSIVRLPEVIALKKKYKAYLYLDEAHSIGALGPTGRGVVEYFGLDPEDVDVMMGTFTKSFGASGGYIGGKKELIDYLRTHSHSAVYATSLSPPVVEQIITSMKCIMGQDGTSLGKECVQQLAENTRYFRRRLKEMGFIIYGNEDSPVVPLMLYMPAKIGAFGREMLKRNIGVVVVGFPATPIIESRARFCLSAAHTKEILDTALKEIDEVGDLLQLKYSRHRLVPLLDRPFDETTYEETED
T1 sequence (O15269 1-473 partner): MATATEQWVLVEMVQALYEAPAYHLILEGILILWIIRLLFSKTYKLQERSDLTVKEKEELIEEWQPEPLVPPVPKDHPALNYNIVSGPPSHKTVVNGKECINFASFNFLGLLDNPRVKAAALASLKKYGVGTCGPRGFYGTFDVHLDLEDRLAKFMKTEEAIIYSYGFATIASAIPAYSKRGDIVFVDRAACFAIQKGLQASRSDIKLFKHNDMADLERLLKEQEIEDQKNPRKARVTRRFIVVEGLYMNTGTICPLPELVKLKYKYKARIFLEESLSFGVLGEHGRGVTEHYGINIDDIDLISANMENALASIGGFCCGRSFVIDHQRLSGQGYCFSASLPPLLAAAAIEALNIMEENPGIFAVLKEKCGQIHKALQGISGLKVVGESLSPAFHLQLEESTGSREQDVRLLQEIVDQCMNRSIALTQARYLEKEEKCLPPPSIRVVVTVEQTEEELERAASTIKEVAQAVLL
T1 sequence (Q969W0 1-71 partner): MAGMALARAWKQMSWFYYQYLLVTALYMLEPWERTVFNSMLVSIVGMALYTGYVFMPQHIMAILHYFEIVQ
The experiment in a line: SPT flashplate assay. In kind it is biochemical. The note with it: SPTISF IC50 (nM).
`CNC(=O)c1ccc2c(c1)CC(=O)N2C1CCN(CC(=O)N2C[C@H]3CCC[C@H]3C2)CC1` [Example 20, 1-{2-[(3aR,6aS)-hexahydrocyclopenta[c]pyrrol-2(1H)-yl]-2-oxoethyl}-4-{5-[(methylamino)carbonyl]-2-oxo-2,3-dihydro-1H-indol-1-yl}piperidinium hydrogen sulfate] displayed an IC50 of 11.4 nM.
On the same count and under the same terms, the result for `CNC(=O)c1ccc2c(c1)CC(=O)N2C1CCN(CC(=O)N2CCC(C)(C)CC2)CC1` [Example 23, 1-[2-(4,4-dimethylpiperidin-1-yl)-2-oxoethyl]-4-{5-[(methylamino)carbonyl]-2-oxo-2,3-dihydro-1H-indol-1-yl}piperidinium chloride] reads 8.4 nM; that for `CNC(=O)c1ccc2c(c1)CC(=O)N2C1CCN(CC(=O)N2CCC3(CC2)CC3)CC1` [Example 25, 1-[2-6-azaspiro[2.5]oct-6-yl)-2-oxoethyl]-4-{5-[(methylamino)carbonyl]-2-oxo-2,3-dihydro-1H-indol-1-yl}piperidinium chloride], 2.64 nM.
With `O=C(CN1CCC(n2c(=O)[nH]c3cc(-c4noc(=O)[nH]4)ccc32)CC1)c1ccc(Cl)cc1` [Example 37, 1-{1-[2-(4-chlorophenyl)-2-oxoethyl]piperidin-4-yl}-5-(5-oxo-4,5-dihydro-1,2,4-oxadiazol-3-yl)-1,3-dihydro-2H-benzimidazol-2-one], the IC50 worked out at 1.68 nM.
Same read-out and setting: as for `CNC(=O)c1cc2c(cc1F)N(C1CCN(CC(=O)N3C[C@H]4CCC[C@H]4C3)CC1)C(=O)C2` [Example 21, 4-{6-fluoro-5-[(methylamino)carbonyl]-2-oxo-2,3-dihydro-1H-indol-1-yl}-1-{2-[(3aR,6aS)-hexahydrocyclopenta[c]pyrrol-2(1H)-yl]-2-oxoethyl}piperidinium chloride], the figure is 14.6 nM.
The compound `CCc1ccc(C(=O)CN2CCC(n3c(=O)[nH]c4cc(C(=O)NC)c(F)cc43)CC2)cc1` [Example 9, 1-[2-(4-ethylphenyl)-2-oxoethyl]-4-{6-fluoro-5-[(methylamino)carbonyl]-2-oxo-2,3-dihydro-1H-benzimidazol-1-yl}piperidinium chloride] had an IC50 of 6.2 nM.
Regarding `CNC(=O)c1cc2c(cc1F)N(C1CCN(CC(=O)N3CCC(C)(C)CC3)CC1)C(=O)C2` [Example 22, 1-[2-(4,4-dimethylpiperidin-1-yl)-2-oxoethyl]-4-{6-fluoro-5-[(methylamino)carbonyl]-2-oxo-2,3-dihydro-1H-indol-1-yl}piperidinium chloride], half-maximal inhibition (IC50) was put at 10.6 nM.

Still in this assay, the particulars now being: microsomes of HEK 293 LCB2 cells, 3H-serine and palmitoyl CoA, phospholipid coated flashplate, 18-24 hours at room temperature; read-out: SPTISF IC50.
`CC1(C)CCN(C(=O)CN2CCC(n3c(=O)[nH]c4cc(S(C)(=O)=O)ccc43)CC2)CC1` [Example 39, 1-{1-[2-(4,4-dimethylpiperidin-1-yl)-2-oxoethyl]piperidin-4-yl}-5-(methylsulfonyl)-1,3-dihydro-2H-benzimidazol-2-one]: the IC50 was 47.9 nM.
Regarding `CCNC(=O)c1ccc2c(c1)n(C)c(=O)n2C1CCN(CC(=O)N2CCC(C)(C)CC2)CC1` [Example 33, 1-[2-(4,4-dimethylpiperidin-1-yl)-2-oxoethyl]-4-{5-[(ethylamino)carbonyl]-3-methyl-2-oxo-2,3-dihydro-1H-benzimidazol-1-yl}piperidinium chloride], the IC50 amounted to 59.1 nM.
For the compound `CCC1(C)CCN(C(=O)CN2CCC(n3c(=O)[nH]c4cc(C(=O)NC)c(F)cc43)CC2)CC1` [Example 27, 1-{1-[2-(4-ethyl-4-methylpiperidin-1-yl)-2-oxoethyl]piperidin-4-yl}-6-fluoro-N-methyl-2-oxo-2,3-dihydro-1H-benzimidazole-5-carboxamide], the IC50 worked out at 6 nM.
As to `CS(=O)(=O)c1ccc2c(c1)[nH]c(=O)n2C1CCN(CC(=O)C2CCCCC2)CC1` [Example 41, 1-[1-(2-cyclohexyl-2-oxoethyl)piperidin-4-yl]-5-(methylsulfonyl)-1,3-dihydro-2H-benzimidazol-2-one], the IC50 turned out to be 365 nM.
On the same count and under the same terms, as for `CNC(=O)c1cc2[nH]c(=O)n(C3CCN(CC(=O)N4CCC(C)(OC)CC4)CC3)c2cc1F` [Example 32, 6-fluoro-1-{1-[2-(4-methoxy-4-methylpiperidin-1-yl)-2-oxoethyl]piperidin-4-yl}-N-methyl-2-oxo-2,3-dihydro-1H-benzimidazole-5-carboxamide], the figure is 26 nM; as for `CNC(=O)c1cc2[nH]c(=O)n(C3CCN(CC(=O)C4CCCCC4)CC3)c2cc1F` [Example 11, 1-[1-(2-cyclohexyl-2-oxoethyl)piperidin-4-yl]-6-fluoro-N-methyl-2-oxo-2,3-dihydro-1H-benzimidazole-5-carboxamide], 63 nM; as for `CNC(=O)c1cc2[nH]c(=O)n(C3CCN(CC(=O)C4CCC(C(C)(C)C)CC4)CC3)c2cc1F` (stereo not drawn) [Example 14, 1-{1-[2-(4-tert-butylcyclohexyl)-2-oxoethyl]piperidin-4-yl}-6-fluoro-N-methyl-2-oxo-2,3-dihydro-1H-benzimidazole-5-carboxamide], 106 nM.
Take `COC1(C)CCN(C(=O)CN2CCC(n3c(=O)[nH]c4cc(C(C)=O)ccc43)CC2)CC1` [Example 55, 5-acetyl-1-{1-[2-(4-methoxy-4-methylpiperidin-1-yl)-2-oxoethyl]piperidin-4-yl}-1,3-dihydro-2H-benzimidazol-2-one; HCl salt]: the 50% inhibitory concentration (IC50) was found to be 71 nM.
Same read-out and setting: the result for `CNC(=O)c1cc2[nH]c(=O)n(C3CCN(CC(=O)N4C[C@H]5CCC[C@H]5C4)CC3)c2cc1F` [Example 31, 6-fluoro-1-(1-{2-[(3aR,6aS)-hexahydrocyclopenta[c]pyrrol-2(1H)-yl]-2-oxoethyl}piperidin-4-yl)-N-methyl-2-oxo-2,3-dihydro-1H-benzimidazole-5-carboxamide] reads 14.7 nM; that for `CNC(=O)c1cc2[nH]c(=O)n(C3CCN(CC(=O)N4CC5CCC(CC5)C4)CC3)c2cc1F` [Example 30, 1-{1-[2-(3-azabicyclo[3.2.2]non-3-yl)-2-oxoethyl]piperidin-4-yl}-6-fluoro-N-methyl-2-oxo-2,3-dihydro-1H-benzimidazole-5-carboxamide], 14.5 nM; that for `CNC(=O)c1cc2[nH]c(=O)n(C3CCN(CC(=O)N4CCC5(CC4)CC5)CC3)c2cc1F` [Example 28, 1-{1-[2-(6-azaspiro[2.5]oct-6-yl)-2-oxoethyl]piperidin-4-yl}-6-fluoro-N-methyl-2-oxo-2,3-dihydro-1H-benzimidazole-5-carboxamide], 12.9 nM.
Regarding `COC1(C)CCC(C(=O)CN2CCC(n3c(=O)[nH]c4cc(S(C)(=O)=O)ccc43)CC2)CC1` (stereo not drawn) [Example 47, 1-{1-[2-(4-methoxy-4-methylcyclohexyl)-2-oxoethyl]piperidin-4-yl}-5-(methylsulfonyl)-1,3-dihydro-2H-benzimidazol-2-one], the IC50 is 508 nM.
Take `CNC(=O)c1cc2[nH]c(=O)n(C3CCN(CC(=O)C4CCC(C)CC4)CC3)c2cc1F` (stereo not drawn) [Example 13, 6-fluoro-N-methyl-1-{1-[2-(4-methylcyclohexyl)-2-oxoethyl]piperidin-4-yl}-2-oxo-2,3-dihydro-1H-benzimidazole-5-carboxamide]: the IC50 was 6 nM.
Same read-out and setting: the result for `CC1(C(=O)CN2CCC(n3c(=O)[nH]c4cc(S(C)(=O)=O)ccc43)CC2)CCCCC1` [Example 48, 1-{1-[2-(1-methylcyclohexyl)-2-oxoethyl]piperidin-4-yl}-5-(methylsulfonyl)-1,3-dihydro-2H-benzimidazol-2-one] reads 4400 nM; that for `COC1CCC(C(=O)CN2CCC(n3c(=O)[nH]c4cc(S(C)(=O)=O)ccc43)CC2)CC1` (stereo not drawn) [Example 43, 1-{1-[2-(4-methoxycyclohexyl)-2-oxoethyl]piperidin-4-yl}-5-(methylsulfonyl)-1,3-dihydro-2H-benzimidazol-2-one], 301 nM.
For `C=C1CCN(C(=O)CN2CCC(n3c(=O)[nH]c4cc(C(=O)NC)c(F)cc43)CC2)CC1` [Example 29, 6-fluoro-N-methyl-1-{1-[2-(4-methylonepiperidin-1-yl)-2-oxoethyl]piperidin-4-yl}-2-oxo-2,3-dihydro-1H-benzimidazole-5-carboxamide], the IC50 is 9.4 nM.
With `CNC(=O)c1cc2[nH]c(=O)n(C3CCN(CC(=O)C4CCC(C(F)(F)F)CC4)CC3)c2cc1F` (stereo not drawn) [Example 15, 6-fluoro-N-methyl-2-oxo-1-(1-{2-oxo-2-[4(trifluoromethyl)cyclohexyl]ethyl}piperidin-4-yl)-2,3-dihydro-1H-benzimidazole-5-carboxamide], the IC50 was found to be 9.5 nM.
